Results as given in article PMC10363545, “The potential use of glycosyl-transferase inhibitors for targeted reduction of S. mutans biofilms in dental materials” (Scientific Reports, 2023).

Tests used:
[1] = molecular target: T1, GTF-B (Streptococcus mutans, UniProt P08987); test: pNPG hydrolysis kinetics with recombinant enzyme (Vmax reduced […]); gel zymography at […] ([…] inhibition); format: biochemical
T1 construct: gene gtfB; recombinant GTF-B

[2] = molecular target: T2, GTF-C (Streptococcus mutans, UniProt P13470); test: dynamic light scattering glucan polymerization assay with recombinant GTF-C at […] sucrose; also pNPG hydrolysis kinetics and gel zymography; format: biochemical
T2 construct: gene gtfC; recombinant GTF-C
T2 sequence (P13470 35-1455): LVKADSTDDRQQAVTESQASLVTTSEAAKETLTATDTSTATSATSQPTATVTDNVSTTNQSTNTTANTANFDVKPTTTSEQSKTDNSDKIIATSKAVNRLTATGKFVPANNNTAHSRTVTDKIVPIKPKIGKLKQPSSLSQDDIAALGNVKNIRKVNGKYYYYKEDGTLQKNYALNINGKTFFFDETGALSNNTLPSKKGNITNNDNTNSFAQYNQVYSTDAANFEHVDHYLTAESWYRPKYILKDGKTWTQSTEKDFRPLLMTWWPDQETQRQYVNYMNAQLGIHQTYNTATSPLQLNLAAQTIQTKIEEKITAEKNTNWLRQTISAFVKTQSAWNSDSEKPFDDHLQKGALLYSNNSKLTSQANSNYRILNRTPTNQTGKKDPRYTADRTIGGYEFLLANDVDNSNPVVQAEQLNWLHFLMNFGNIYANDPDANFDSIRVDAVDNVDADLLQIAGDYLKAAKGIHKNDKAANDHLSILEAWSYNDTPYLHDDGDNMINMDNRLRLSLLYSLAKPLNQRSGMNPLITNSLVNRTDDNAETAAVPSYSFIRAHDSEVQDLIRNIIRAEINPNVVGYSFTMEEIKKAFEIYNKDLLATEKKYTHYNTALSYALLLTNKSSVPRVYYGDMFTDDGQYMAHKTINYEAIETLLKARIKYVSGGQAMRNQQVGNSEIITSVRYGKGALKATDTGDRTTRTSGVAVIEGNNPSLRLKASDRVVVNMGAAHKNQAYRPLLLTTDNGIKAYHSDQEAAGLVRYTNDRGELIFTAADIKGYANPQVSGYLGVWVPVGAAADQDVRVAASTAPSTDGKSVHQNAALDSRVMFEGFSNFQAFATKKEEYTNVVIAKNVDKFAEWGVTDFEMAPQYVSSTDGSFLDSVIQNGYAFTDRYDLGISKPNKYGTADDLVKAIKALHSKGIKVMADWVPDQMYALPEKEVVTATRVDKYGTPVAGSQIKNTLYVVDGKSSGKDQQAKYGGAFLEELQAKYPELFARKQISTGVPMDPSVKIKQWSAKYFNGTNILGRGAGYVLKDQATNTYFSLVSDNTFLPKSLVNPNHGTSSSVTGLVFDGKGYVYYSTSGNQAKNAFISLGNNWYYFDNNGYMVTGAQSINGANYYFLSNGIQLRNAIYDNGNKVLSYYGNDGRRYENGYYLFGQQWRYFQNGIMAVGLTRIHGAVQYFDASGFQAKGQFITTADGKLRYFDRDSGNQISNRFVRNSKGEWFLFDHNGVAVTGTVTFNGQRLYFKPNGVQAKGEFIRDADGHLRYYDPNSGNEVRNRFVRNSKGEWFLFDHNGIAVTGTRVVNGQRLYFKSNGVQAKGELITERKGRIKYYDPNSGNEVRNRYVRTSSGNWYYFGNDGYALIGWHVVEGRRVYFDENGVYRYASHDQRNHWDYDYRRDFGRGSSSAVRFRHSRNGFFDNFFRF

T1 sequence (P08987 35-1476): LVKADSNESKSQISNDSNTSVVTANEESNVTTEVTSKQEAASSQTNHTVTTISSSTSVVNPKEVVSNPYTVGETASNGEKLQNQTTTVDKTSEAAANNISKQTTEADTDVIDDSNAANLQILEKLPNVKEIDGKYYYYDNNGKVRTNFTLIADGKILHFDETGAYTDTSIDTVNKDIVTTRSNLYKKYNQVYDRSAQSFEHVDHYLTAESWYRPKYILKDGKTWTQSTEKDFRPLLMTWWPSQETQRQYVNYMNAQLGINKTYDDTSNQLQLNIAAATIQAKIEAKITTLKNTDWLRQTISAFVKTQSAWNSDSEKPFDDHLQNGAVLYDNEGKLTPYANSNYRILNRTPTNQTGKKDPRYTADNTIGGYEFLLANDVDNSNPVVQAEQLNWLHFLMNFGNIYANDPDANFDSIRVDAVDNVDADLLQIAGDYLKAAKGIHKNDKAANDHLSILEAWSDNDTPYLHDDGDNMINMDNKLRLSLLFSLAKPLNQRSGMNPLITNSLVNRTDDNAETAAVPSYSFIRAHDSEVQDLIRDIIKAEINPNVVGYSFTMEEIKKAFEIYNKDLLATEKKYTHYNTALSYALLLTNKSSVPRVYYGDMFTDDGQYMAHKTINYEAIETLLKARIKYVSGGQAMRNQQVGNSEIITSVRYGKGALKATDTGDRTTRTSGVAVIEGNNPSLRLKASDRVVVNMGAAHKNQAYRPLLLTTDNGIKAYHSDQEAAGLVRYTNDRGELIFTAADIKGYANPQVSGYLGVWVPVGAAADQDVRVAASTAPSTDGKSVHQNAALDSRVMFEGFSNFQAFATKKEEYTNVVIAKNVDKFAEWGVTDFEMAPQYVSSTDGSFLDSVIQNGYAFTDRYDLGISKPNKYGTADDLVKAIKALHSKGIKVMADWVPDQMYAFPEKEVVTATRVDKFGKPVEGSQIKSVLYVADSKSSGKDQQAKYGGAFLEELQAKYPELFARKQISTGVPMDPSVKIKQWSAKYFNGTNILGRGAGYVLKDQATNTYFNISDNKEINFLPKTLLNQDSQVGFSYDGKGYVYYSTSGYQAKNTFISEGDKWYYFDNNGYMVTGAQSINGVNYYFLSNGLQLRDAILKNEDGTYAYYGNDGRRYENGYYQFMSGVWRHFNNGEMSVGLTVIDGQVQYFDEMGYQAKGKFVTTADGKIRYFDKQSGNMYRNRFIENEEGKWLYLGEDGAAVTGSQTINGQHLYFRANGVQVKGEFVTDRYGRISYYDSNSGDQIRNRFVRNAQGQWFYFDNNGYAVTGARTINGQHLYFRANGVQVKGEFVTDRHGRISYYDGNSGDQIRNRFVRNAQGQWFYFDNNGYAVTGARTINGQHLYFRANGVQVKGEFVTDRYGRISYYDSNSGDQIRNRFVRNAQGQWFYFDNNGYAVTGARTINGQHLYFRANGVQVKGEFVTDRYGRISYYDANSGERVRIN

With NC(=O)c1cc(OCCOCCOCCOCCO)ccc1NC(=O)c1cc2cc([N+](=O)[O-])ccc2s1 [G43-C3-TEG] the “% reduction of Vmax” value [1] was 39 % reduction of Vmax and the IC50 [2] was 23.5 µM.
